Data set [1] is described as follows: Pharmacokinetic activity assay in mice. The data set is classed as in vivo. The settings on record: IV 1 mg/kg, PO 10 mg/kg. As for the experimental part: Experimental objective: The test substance was administered to mice via single-dose intravenous and oral gavage routes, and its plasma concentration was measured to evaluate the pharmacokinetic characteristics in mice.
Experimental animals: C57 mice or other available test mice
IV dose: 1 mg/kg; vehicle: 0.5% DMSO or 0.5% MeOH-5% pharmaceutical grade polyethylene glycol-15 hydroxystearate-PBS
Sample collection: 0.03 mL of blood samples were collected from the saphenous vein in experimental animals by puncture at each time point, and the actual blood collection time was recorded. All blood samples were added to commercially available EDTA-K2 anticoagulant tubes with a specification of 1.5 mL (supplied by Jiangsu Kangjian Medical Apparatus Co., Ltd.). After collection, within half an hour, the blood sample was centrifuged at 4° C., 3000 g for 10 min to aspirate the supernatant plasma, which was put in dry ice immediately, and stored in a refrigerator at −80° C. for LCMS/MS analysis.
Blood sampling points: 5 min, 15 min, 30 min, 1 hour, 2 hours, 4 hours, 6 hours, 8 hours, 12 hours, 20 hours, 24 hours.
Test compounds: positive compound LNP023, the final product of Example 158, the final products (compound 159A and compound 159B) of Example 159, and compound 11 of Example 75.

In data set [2] the test system is LPS-induced complement activation. Description: In vivo efficacy assay of LPS-induced complement activation in mice. The settings on record: female C57BL/6J mice, LPS 100 μg intraperitoneal, PO. The protocol: Experimental objective: To investigate the inhibitory effect of the compounds of the present disclosure on complement activation in mice induced by LPS stimulation.
Experimental animals: Female C57BL/6J mice, 7 to 9 weeks old, weighing between 17 to 23 g.
Experimental procedure: 100 μg of lipopolysaccharide (LPS) in Salmonella typhimurium (Sigma) dissolved in 100 μL of sterile PBS was intraperitoneally injected to induce complement activation in mice. Negative control animals were intraperitoneally injected 100 μL of sterile PBS and administered alone by tube feeding (PO). Positive control animals were intraperitoneally injected LPS and PO drug vehicles (0.5% (w/v) methyl cellulose and 0.5% (v/v) Tween 80).
Sample collection: 0.3 mL of blood samples were collected from the orbital venous plexus. All blood samples were added to commercially available EDTA-K2 anticoagulant tubes with a specification of 1.5 mL. After collection, within half an hour, the blood sample was centrifuged at 4° C., 3000 g for 10 min to aspirate the supernatant plasma, which was put in dry ice immediately, and stored in a refrigerator at −80° C. for Western blot analysis of downstream C3d protein levels after complement activation.
Sample analysis: Mouse plasma (5 μL)+Lysis buffer (27.5 μL)+Loading buffer (12.5 μL)+Reducing buffer (5 μL) were mixed well and incubated at 100° C. for 15 min with a loading volume of 5 μL/well, i.e., a loading volume of plasma of 0.5 μL per well.
Test compounds: positive compound LNPO23, the final product of Example 158, the final products (compound 159A and compound 159B) of Example 159, and compound 11 of Example 75.

In data set [3] the test system is Sheep Anti-Rat Fx1A Serum induced Heymann nephritis. As to the kind of experiment: In vivo efficacy assay of passive Heymann nephritis in rats. The settings on record: male SD rats, intragastric twice a day for 14 days, 5, 20 and 60 mpk; LNP023 60 mpk. An excerpt: Experimental objective: To investigate the ability of the compounds of the present disclosure to improve renal function of Sheep Anti-Rat Fx1A Serum induced Heymann nephritis in rats, including the evaluation of reducing proteinuria level and improving renal tissue damage.
Experimental animals: Male SD rats, 7 to 10 weeks old, weighing between 200 to 300 g.
Urine was collected from rats on D-2 before administration. On D1, the first day of the experiment, animals in the control group (group 1) were administered 5 mL/kg of Sheep Non-Immune serum via a single tail vein injection; animals in the model and administration groups (groups 2 to 6) were administered 5 mL/kg of Sheep Anti-Rat Fx1A Serum via a single tail vein injection.
The rats were treated by intragastric administration twice a day with an interval of 8 hours and a volume of 10 mL/kg. On D1, 1 hour before modeling, animals in groups 1 and 2 were administered blank vehicle 20% PEG400/10% Solutol/70% water; animals in group 3 were administered LNP023 (60 mpk); animals in groups 4 to 6 were administered different concentrations of synthetic compounds (5 mpk, 20 mpk, and 60 mpk); 8 hours after the first administration, each group was administered again with the same dose and volume as the first administration. From D2 to D14, animals in each group were administered different compounds or vehicles for 14 consecutive days (including the first day) according to the dose, volume, administration method, and frequency on D1.
Urine collection: Urine samples were collected from rats on D-2 before administration, and 2 to 4 hours and 4 to 6 hours after the first administration on D4, D6, D8, D11, and D14 after administration, transferred to EP tubes and stored in a refrigerator at −80° C. to −60° C. for the detection of urine protein and creatinine in rats.
Kidney sample collection: All animals were euthanized with CO2 inhalation anesthesia on Day 15, and bilateral kidneys were collected. The left kidney was cut transversely, and the right kidney was cut longitudinally. Half of the transversely cut kidney (left side) and half of the longitudinally cut kidney (right side) were fixed in formalin (placed in the same EP tube).
4. […] Urine total protein (uTP) in rats was detected without dilution; if exceeding the upper detection limit, it was 10-fold diluted (10 μL of sample+90 μL of saline (0.9% saline)) first (Decrease mode); if still exceeding the upper detection limit after 10-fold dilution, it was 100-fold diluted (2 μL of sample+198 μL of saline (0.9% saline)) (Increase mode). Data were read by the analytical instrument HITACHI LST008AS(P). • (2) Kidney pathological scoring: The degree of drug damage to rat kidneys (paraffin sections) was analyzed by HE staining. […]

`CCCC1CCN(C(=O)c2c(OC)cc(C)c3[nH]ccc23)C(c2ccc(C(=O)O)cc2)C1` (single isomer, unassigned) [Compound 159B]: in data set [1], the “clearance rate during in vivo metabolism, compared with LNP023” value is given as “comparable or superior” and the “half-life during in vivo metabolism, compared with LNP023” value was “comparable or superior”. Also, the “inhibition of LPS-induced complement activation (plasma C3d levels), compared with LNP023” value in data set [2] is “superior or equivalent”. The “performance in the kidney disease model through urine and kidney pathology analysis, compared with LNP023” value in data set [3] is reported as “performed better”.
